Common to all, as to experiment: Antifungal MIC/MLC (broth microdilution)
(In general: In broth dilution the organism is exposed to a series of concentrations in liquid medium.)

One assay concerns Trichophyton rubrum FF5. In kind it is cell-based. An excerpt: (§1) Twenty-three fungal strains were used in this study, including reference strains and clinical isolates of yeasts and filamentous fungi. Yeast strains included reference strains (ATCC—American Type Culture Collection and CECT—Colección Española de Cultivos Tipo) and clinical isolates: C. albicans ATCC 10231, Candida krusei ATCC 6258, C. albicans H37, C. albicans FF172, C. albicans FF176, C. albicans DSY294, C. albicans DSY296, C. glabrata DSY562, C. glabrata DSY565 and Cryptococcus neoformans CECT 1078. Filamentous fungi included Aspergillus fumigatus ATCC 240305, A. fumigatus C111, A. niger ATCC 16404, A. flavus F44, Fusarium solani FF125, F. oxysporum FF115, and dermatophytes Trichophyton rubrum FF5, T. mentagrophytes FF7, Microscoporum canis FF1 and Nannizzia gypsea FF3 (formerly Microsporum gypseum) and a species of genera Mucor, Lichetheimia and Scedosporium. Saprolegnia parasitica CBS 223.65, a reference strain of an oomycete fish pathogen, was also included. All microorganisms were kept in Sabouraud Dextrose Broth (SDB: BioMérieux, Marcy L'Etoile, France) plus glycerol (20%) at −80° C. The strains were kept in Sabouraud Dextrose Agar (SDA: BioMérieux, Marcy L'Etoile, France) slants and were sub-cultured in SDA before each test. S. parasitica was kept in Corn Meal Agar plates (CMA: BBL™ Corn Meal Agar, BD, Le Pont-de-Claix, France) and was sub-cultured in CMA before each experiment. C. albicans H37, was kindly provided by Cidilia Pina Vaz (CHSJ, Porto, Portugal) and C. albicans DSY294, C. albicans DSY296, C. glabrata DSY562, C. glabrata DSY565 were kindly provided by D. Sanglard (University of Lausanne, Switzerland). A stock solution of compound 1 (10 mg/mL), was prepared in dimethyl sulfoxide (DMSO 99%: Alfa Aesar, Kandel, Germany), kept at −20 degrees C., and freshly diluted in the appropriate culture media before each assay. In all experiments, in-test concentrations of DMSO were kept below 2%.
(§2) Antifungal activity was evaluated by determining the MIC of compound 1 by the broth microdilution method, according to CLSI guidelines (reference documents M27-A3 for yeasts and M38-A2 for filamentous fungi). Briefly, cell or spore suspensions were prepared in RPMI-1640 broth medium (Biochrom, Berlin, Germany) buffered with 3-(N-morpholino)propane sulfonic acid (MOPS) (Sigma-Aldrich, St. Louis, MO, USA) (henceforth referred to as RPMI) from fresh cultures of the different strains of fungi. For yeasts, the inoculum was adjusted to 0.5-2.5×10^3 CFU/mL. For filamentous fungi, the inoculum was adjusted to 1-3×10^3 CFU/mL for dermatophytes, and 0.4-5×10^4 CFU/mL for all other strains. […] Sterility and growth controls were included in each assay. The 96-well flat-bottomed untreated polystyrene microtiter plates which were incubated for 48 h at 35° C., with the exception of Lichetheimia spp. which was incubated at 25° C. for 48 h, and the dermatophyte strains, which incubated for 5-7 days at 25° C. […] The minimal lethal concentration (MLC) was determined by spreading 20 μL of culture collected from wells showing no visible growth on SDA plates. The MLC was determined as the lowest concentration showing complete growth inhibition after 48 h at 35 degrees C., 48 h at 25 degrees C.

Assay [1] has as its system Candida albicans ATCC 10231. In kind it is cell-based.
Excerpt: as §1, §2

The test system of another assay is Nannizzia gypsea FF3. In kind it is cell-based.
Excerpt: as §1, §2

A further assay concerns Microsporum canis FF1. In kind it is cell-based.
Excerpt: as §1, §2

In another assay the test system is C. albicans DSY296. In kind it is cell-based, Candida albicans.
Excerpt: as §1, §2

The test system of a further assay is C. albicans FF172. In kind it is cell-based, Candida albicans.
Excerpt: as §1, §2

For a further assay, the system named is C. albicans FF176. Format: cell-based, Candida albicans.
Excerpt: as §1, §2

For a further assay, the system named is C. albicans H37. Format: cell-based, Candida albicans.
Excerpt: as §1, §2

Another assay deals with C. albicans DSY294. In kind it is cell-based, Candida albicans.
Excerpt: as §1, §2

[2] abbreviates: C. albicans DSY296, resistant to fluconazole or azoles.
[3] abbreviates: C. albicans FF176, resistant to fluconazole or azoles.
Where [4] appears, read: C. albicans H37, resistant to fluconazole or azoles.

Values after ≈ are worked out from the molar mass of the structure shown. Read-outs that look alike come from different tables or passages of the source.

Consider `C[C@H](CCC(=O)NCCN)[C@H]1CC[C@H]2[C@@H]3CC[C@@H]4C[C@H](O)CC[C@]4(C)[C@H]3C[C@H](O)[C@]12C` [Compound 1, (R)—N-(2-aminoethyl)-4-((3R,5R,8R,9S,10S,12S,13R,14S,17R)-3,12-dihydroxy-10,13-dimethylhexadecahydro-1H-cyclopenta[a]phenanthren-17-yl) pentanamida], for which the MIC against Trichophyton rubrum FF5 is 32 µg/mL (≈ 73.6 µM); in assay [1] it was 64 µg/mL (≈ 147 µM); in the assay with Nannizzia gypsea FF3 it was 32 µg/mL (≈ 73.6 µM); against Microsporum canis FF1, 64 µg/mL (≈ 147 µM); with C. albicans DSY296 (setting [2]) it was 64 µg/mL (≈ 147 µM); in the assay on C. albicans FF172, 64 µg/mL (≈ 147 µM). Moreover, the minimal inhibitory concentration (MIC) in the assay on C. albicans FF176 (setting [3]) was found to be 32 µg/mL (≈ 73.6 µM); against C. albicans H37 (setting [4]), 64 µg/mL (≈ 147 µM); in the assay on C. albicans DSY294 (C. albicans DSY294), 64 µg/mL (≈ 147 µM). In addition, the MLC with Trichophyton rubrum FF5 worked out at 64 µg/mL (≈ 147 µM); in assay [1], 64 µg/mL (≈ 147 µM); in the assay on Nannizzia gypsea FF3 it was 32 µg/mL (≈ 73.6 µM); in the assay with Microsporum canis FF1, 128 µg/mL (≈ 294 µM); with C. albicans DSY296 (setting [2]) it was 64 µg/mL (≈ 147 µM); in the assay on C. albicans FF172 it was 64 µg/mL (≈ 147 µM). Further, the MLC stood at 32 µg/mL (≈ 73.6 µM) with C. albicans FF176 (setting [3]), 64 µg/mL (≈ 147 µM) in the assay on C. albicans H37 (setting [4]) and 64 µg/mL (≈ 147 µM) in the assay on C. albicans DSY294 (C. albicans DSY294).
Turning to `OC(Cn1cncn1)(Cn1cncn1)c1ccc(F)cc1F` [Fluconazole, reference compound], the MIC was found to be 16 µg/mL (≈ 52.2 µM) in the assay with Trichophyton rubrum FF5 (read-out: MIC); 2 µg/mL (≈ 6.53 µM) in [1] (ATCC10231, read-out: MIC); 32 µg/mL (≈ 104 µM) in the assay on Nannizzia gypsea FF3 (read-out: MIC); 32 µg/mL (≈ 104 µM) in the assay on Microsporum canis FF1 (read-out: MIC); 64 µg/mL (≈ 209 µM) in the assay on C. albicans DSY296 (Candida albicans, DSY296, read-out: MIC); 0.25 µg/mL (≈ 0.816 µM) in the assay with C. albicans FF172 (Candida albicans, read-out: MIC). For the same compound, the MIC in the assay on C. albicans FF176 (Candida albicans, FF176, read-out: MIC) was 32 µg/mL (≈ 104 µM); with C. albicans H37 (Candida albicans, H37, read-out: MIC), ≥ 128 µg/mL; with C. albicans DSY294 (Candida albicans, DSY294), 0.125 µg/mL (≈ 0.408 µM).

Usually MIC stands for the least concentration at which growth counts as inhibited.

The values above are taken from patent US20250002450A1, “CATIONIC STEROID COMPOUNDS, METHOD OF OBTAINING THEREOF, FORMULATIONS COMPRISING THEREOF AND THEIR USES” (UNIVERSIDADE DO PORTO, priority 2021, published 2025).
